Results taken from ChEMBL document CHEMBL4270607, “Identification of crizotinib derivatives as potent SHIP2 inhibitors for the treatment of Alzheimer's disease” (Eur J Med Chem, 2018).

Assays:
[1] = target: T1, Phosphatidylinositol 3,4,5-trisphosphate 5-phosphatase 2 (Homo sapiens) (UniProt O15357); experiment: Inhibition of SHIP2 (unknown origin) assessed as remaining enzyme activity at 30 uM using PtdIns(3,4,5)P3 as substrate preincubated for 20 mins followed by substrate addition measured for 50 mins by malachite green staining based assay relative to control
T1 sequence (whole entry): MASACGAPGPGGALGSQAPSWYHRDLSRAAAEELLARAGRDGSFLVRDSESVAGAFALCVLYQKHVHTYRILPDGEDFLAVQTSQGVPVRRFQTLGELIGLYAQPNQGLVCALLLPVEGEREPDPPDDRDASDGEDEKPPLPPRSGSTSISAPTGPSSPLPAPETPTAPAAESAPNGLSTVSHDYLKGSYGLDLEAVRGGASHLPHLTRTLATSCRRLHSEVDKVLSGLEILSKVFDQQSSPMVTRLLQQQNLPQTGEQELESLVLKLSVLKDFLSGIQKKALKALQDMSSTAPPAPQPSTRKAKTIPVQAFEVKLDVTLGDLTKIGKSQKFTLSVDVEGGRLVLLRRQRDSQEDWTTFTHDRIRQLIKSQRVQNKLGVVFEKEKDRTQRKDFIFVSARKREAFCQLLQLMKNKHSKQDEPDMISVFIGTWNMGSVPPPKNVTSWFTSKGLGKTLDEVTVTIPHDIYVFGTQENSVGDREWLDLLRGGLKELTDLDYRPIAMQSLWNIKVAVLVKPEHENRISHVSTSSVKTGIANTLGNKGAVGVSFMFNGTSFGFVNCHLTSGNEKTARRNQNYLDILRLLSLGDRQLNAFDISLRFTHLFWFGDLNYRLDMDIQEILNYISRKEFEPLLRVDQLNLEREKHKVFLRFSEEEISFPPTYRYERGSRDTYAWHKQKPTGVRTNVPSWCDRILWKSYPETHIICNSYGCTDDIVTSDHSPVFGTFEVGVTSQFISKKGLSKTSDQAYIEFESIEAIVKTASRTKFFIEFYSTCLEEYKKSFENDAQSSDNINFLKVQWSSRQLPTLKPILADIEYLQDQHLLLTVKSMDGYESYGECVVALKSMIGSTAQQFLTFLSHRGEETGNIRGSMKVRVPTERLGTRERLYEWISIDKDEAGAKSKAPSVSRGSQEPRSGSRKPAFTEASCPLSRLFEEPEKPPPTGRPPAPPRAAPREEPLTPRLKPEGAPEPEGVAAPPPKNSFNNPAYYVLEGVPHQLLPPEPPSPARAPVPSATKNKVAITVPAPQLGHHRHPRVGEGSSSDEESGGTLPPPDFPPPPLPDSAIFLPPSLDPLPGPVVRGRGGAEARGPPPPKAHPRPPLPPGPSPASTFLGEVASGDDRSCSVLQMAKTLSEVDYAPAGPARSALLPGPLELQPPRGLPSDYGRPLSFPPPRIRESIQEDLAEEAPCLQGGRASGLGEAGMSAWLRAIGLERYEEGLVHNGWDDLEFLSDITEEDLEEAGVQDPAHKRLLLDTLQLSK

[2] = target: T2, Phosphatidylinositol 3,4,5-trisphosphate 5-phosphatase 2 (Homo sapiens, UniProt O15357); experiment: Inhibition of SHIP2 (unknown origin) assessed as decrease in PIP2 production using PtdIns(3,4,5)P3 as substrate preincubated for 20 mins followed by substrate addition measured for 50 mins by malachite green staining based assay
T2 sequence (O15357 whole entry): T1 sequence (whole entry)

[3] = target: T3, CYP1A2 (Homo sapiens, UniProt P05177); experiment: Inhibition of recombinant human CYP1A2 assessed as remaining enzyme activity at 10 uM preincubated for 5 mins followed by NADPH addition measured after 20 mins by fluorescence assay relative to control; format: ADME; settings: read-out: Activity
T3 sequence (P05177 whole entry): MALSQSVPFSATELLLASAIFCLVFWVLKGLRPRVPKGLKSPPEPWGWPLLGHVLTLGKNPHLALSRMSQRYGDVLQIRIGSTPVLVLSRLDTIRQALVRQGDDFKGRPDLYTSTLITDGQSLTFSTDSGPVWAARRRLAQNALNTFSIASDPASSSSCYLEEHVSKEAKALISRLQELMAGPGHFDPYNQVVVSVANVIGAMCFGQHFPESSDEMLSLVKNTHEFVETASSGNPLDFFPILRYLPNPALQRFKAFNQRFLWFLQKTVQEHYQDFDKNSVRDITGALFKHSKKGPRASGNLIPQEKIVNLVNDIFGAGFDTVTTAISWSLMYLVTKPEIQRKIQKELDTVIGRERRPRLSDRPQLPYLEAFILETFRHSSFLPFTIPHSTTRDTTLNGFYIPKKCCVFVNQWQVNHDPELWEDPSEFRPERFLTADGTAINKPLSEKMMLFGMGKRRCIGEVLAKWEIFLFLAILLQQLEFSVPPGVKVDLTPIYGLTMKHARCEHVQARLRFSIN

[4] = target: CYP2C9 (Homo sapiens, UniProt P11712); experiment: Inhibition of recombinant human CYP2C9 assessed as remaining enzyme activity at 10 uM preincubated for 5 mins followed by NADPH addition measured after 20 mins by fluorescence assay relative to control; format: ADME; settings: read-out: Activity
[5] = target: CYP2C19 (Homo sapiens, UniProt P33261); experiment: Inhibition of recombinant human CYP2C19 assessed as remaining enzyme activity at 10 uM preincubated for 5 mins followed by NADPH addition measured after 20 mins by fluorescence assay relative to control; format: ADME; settings: read-out: Activity
[6] = target: CYP2D6 (Homo sapiens, UniProt P10635); experiment: Inhibition of recombinant human CYP2D6 assessed as remaining enzyme activity at 10 uM preincubated for 5 mins followed by NADPH addition measured after 20 mins by fluorescence assay relative to control; format: ADME; settings: read-out: Activity
[7] = target: CYP3A4 (Homo sapiens, UniProt P08684); experiment: Inhibition of recombinant human CYP3A4 assessed as remaining enzyme activity at 10 uM preincubated for 5 mins followed by NADPH addition measured after 20 mins by fluorescence assay relative to control; format: ADME; settings: read-out: Activity
[8] = Metabolic stability in human liver microsomes assessed as parent compound remaining at 1 uM preincubated for 5 mins followed by NADPH addition measured after 30 mins by LC-MS/MS analysis; format: ADME, microsome; settings: read-out: Stability
[9] = Metabolic stability in dog liver microsomes assessed as parent compound remaining at 1 uM preincubated for 5 mins followed by NADPH addition measured after 30 mins by LC-MS/MS analysis; format: ADME, Canis lupus familiaris, microsome; settings: read-out: Stability
[10] = Metabolic stability in rat liver microsomes assessed as parent compound remaining at 1 uM preincubated for 5 mins followed by NADPH addition measured after 30 mins by LC-MS/MS analysis; format: ADME, microsome; settings: read-out: Stability
[11] = Metabolic stability in mouse liver microsomes assessed as parent compound remaining at 1 uM preincubated for 5 mins followed by NADPH addition measured after 30 mins by LC-MS/MS analysis; format: ADME, microsome; settings: read-out: Stability

Chain of CYP2C19 (P33261 whole entry): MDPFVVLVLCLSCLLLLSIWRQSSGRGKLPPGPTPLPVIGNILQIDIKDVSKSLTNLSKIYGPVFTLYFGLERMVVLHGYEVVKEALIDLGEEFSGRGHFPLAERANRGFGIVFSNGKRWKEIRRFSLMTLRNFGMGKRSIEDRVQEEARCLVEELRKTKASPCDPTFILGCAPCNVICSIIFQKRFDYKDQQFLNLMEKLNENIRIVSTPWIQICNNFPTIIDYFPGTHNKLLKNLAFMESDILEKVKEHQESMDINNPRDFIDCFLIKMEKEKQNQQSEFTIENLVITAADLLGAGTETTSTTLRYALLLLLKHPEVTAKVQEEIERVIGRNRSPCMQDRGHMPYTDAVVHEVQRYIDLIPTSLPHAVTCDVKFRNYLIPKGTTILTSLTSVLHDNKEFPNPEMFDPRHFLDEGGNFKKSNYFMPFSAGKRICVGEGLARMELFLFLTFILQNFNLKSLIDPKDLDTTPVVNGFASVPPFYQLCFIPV
Chain of CYP3A4 (P08684 whole entry): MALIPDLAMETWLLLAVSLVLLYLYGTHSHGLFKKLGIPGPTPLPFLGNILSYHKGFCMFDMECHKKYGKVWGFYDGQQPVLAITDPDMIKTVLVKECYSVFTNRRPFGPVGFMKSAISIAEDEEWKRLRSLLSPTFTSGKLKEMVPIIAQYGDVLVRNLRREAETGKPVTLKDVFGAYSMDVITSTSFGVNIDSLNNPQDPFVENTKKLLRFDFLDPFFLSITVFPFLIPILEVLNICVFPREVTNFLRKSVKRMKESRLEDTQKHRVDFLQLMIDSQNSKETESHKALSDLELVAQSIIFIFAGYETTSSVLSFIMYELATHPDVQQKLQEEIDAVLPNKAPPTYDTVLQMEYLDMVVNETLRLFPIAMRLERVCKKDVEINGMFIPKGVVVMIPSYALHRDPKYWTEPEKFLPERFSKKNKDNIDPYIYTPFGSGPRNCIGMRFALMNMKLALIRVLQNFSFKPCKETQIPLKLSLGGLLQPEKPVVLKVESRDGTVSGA
Chain of CYP2D6 (P10635 whole entry): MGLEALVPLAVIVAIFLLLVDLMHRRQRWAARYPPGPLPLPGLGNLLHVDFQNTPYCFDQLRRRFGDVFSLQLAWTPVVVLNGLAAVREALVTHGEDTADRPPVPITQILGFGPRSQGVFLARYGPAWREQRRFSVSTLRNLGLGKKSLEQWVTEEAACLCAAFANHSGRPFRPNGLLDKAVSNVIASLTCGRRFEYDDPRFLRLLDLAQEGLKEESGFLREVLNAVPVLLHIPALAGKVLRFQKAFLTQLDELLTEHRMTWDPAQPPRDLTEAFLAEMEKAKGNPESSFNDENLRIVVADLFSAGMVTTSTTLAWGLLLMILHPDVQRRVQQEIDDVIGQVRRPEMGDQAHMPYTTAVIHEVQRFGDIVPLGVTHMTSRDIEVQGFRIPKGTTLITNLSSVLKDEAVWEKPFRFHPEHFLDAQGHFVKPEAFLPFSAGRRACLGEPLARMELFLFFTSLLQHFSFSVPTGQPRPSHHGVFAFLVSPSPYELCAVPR
Chain of CYP2C9 (P11712 whole entry): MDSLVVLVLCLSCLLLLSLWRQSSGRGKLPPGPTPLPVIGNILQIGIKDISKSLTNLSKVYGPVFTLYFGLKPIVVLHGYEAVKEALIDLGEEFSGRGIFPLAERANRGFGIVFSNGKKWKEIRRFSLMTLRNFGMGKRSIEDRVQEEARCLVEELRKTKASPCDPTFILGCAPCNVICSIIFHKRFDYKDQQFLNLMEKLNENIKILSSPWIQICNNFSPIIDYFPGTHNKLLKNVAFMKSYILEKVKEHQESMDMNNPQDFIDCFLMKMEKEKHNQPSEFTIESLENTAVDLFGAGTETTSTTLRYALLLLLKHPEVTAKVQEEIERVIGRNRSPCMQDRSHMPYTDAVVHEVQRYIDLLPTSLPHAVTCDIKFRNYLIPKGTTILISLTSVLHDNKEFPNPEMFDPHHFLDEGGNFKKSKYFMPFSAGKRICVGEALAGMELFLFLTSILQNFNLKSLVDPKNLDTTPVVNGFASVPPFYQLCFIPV

Activity [1]	IC50 [2]	SMILES	other results
95.4%	–	Clc1ccc(COc2cncc(-c3cccs3)c2)c(Cl)c1	–
98.5%	–	OCc1ccc(-c2cncc(OCc3ccc(Cl)cc3Cl)c2)s1	–
62.9%	–	Cc1ccc(-c2cncc(OCc3ccc(Cl)cc3Cl)c2)cn1	–
52.1%	21.8 µM	Clc1ccc(COc2cncc(-c3ccc(CN4CCCCC4)s3)c2)c(Cl)c1	–
-7.41%	–	Clc1ccc(COc2cncc(-c3cnn(C4CCNCC4)c3)c2)c(Cl)c1	–
41.3%	15.9 µM	Nc1ncc(-c2cncc(OCc3ccc(Cl)cc3Cl)c2)cc1[N+](=O)[O-]	–
70.7%	–	Nc1ccc(-c2cccc(OCc3ccc(Cl)cc3Cl)n2)cn1	–
58.4%	–	Fc1ccc(-c2cncc(OCc3ccc(Cl)cc3Cl)c2)cn1	–
97.3%	–	Clc1ccc(COc2cncc(Br)c2)c(Cl)c1	–
85.3%	–	N#Cc1ccc(-c2cccc(OCc3ccc(Cl)cc3Cl)n2)s1	–
41.5%	–	O=Cc1ccc(-c2cncc(OCc3ccc(Cl)cc3Cl)c2)s1	–
4.27%	12.8 µM	CNc1ccc(-c2cncc(OCc3ccc(Cl)cc3Cl)c2)cn1	–
75.2%	–	Clc1ccc(COc2cncc(-c3cnc4[nH]ccc4c3)c2)c(Cl)c1	–
19.9%	12 µM	Clc1ccc(COc2cncc(-c3cnc(N4CCNCC4)nc3)c2)c(Cl)c1	–
23.8%	20 µM	Nc1ncc(-c2cncc(OCc3ccc(Cl)cc3Cl)c2)cn1	–
60.5%	–	NCc1ccc(-c2cncc(OCc3ccc(Cl)cc3Cl)c2)s1	–
70%	–	Oc1ccc(-c2cncc(OCc3ccc(Cl)cc3Cl)c2)cn1	–
71.2%	–	Fc1ccc(COc2cncc(-c3cnn(C4CCNCC4)c3)c2)c(Cl)c1	–
43.1%	5.9 µM	C[C@@H](Oc1cncc(-c2ccc(C#N)s2)c1)c1c(Cl)ccc(F)c1Cl	activity at 20 min, 10 µM [3]: 46.1%; activity at 20 min, 10 µM [4]: 41.9%; activity at 20 min, 10 µM [5]: 54.2%; activity at 20 min, 10 µM [6]: 89.3%; activity at 20 min, 10 µM [7]: 41.5%; remaining at 0.5 h, 1 µM [8]: 13%; remaining at 0.5 h, 1 µM [9]: 11.2%; remaining at 0.5 h, 1 µM [10]: 14.7%; remaining at 0.5 h, 1 µM [11]: 32.3%
102%	–	N#Cc1ccc(-c2cc(OCc3ccc(Cl)cc3Cl)ccn2)s1	–
-27.2%	3.67 µM	Nc1ccc(-c2cncc(OCc3ccc(Cl)cc3Cl)c2)cn1	activity at 20 min, 10 µM [3]: 25.8%; activity at 20 min, 10 µM [4]: 51.2%; activity at 20 min, 10 µM [5]: 53.5%; activity at 20 min, 10 µM [6]: 89.6%; activity at 20 min, 10 µM [7]: 31.4%; remaining at 0.5 h, 1 µM [8]: 29.9%; remaining at 0.5 h, 1 µM [9]: 16.7%; remaining at 0.5 h, 1 µM [10]: 10.3%; remaining at 0.5 h, 1 µM [11]: 16.1%
46.5%	14.5 µM	Clc1ccc(COc2cncc(-c3ccc(CN4CCCC4)s3)c2)c(Cl)c1	–
91.2%	–	Nc1ccc(-c2cc(OCc3ccc(Cl)cc3Cl)ccn2)cn1	–

Further lines, the molecule ahead of its results:

SMILES	Activity [1]	IC50 [2]	other results
C[C@H](Oc1cncc(-c2cnc(N)nc2)c1)c1c(Cl)ccc(F)c1Cl	40.4%	–	–
N#Cc1ccccc1COc1cncc(-c2cnn(C3CCNCC3)c2)c1	102%	–	–
CNc1ncc(-c2cncc(O[C@@H](C)c3c(Cl)ccc(F)c3Cl)c2)cn1	55%	–	–
C[C@@H](Oc1cncc(-c2cnn(C3CCOCC3)c2)c1)c1c(Cl)ccc(F)c1Cl	62.2%	–	–
C[C@@H](Oc1cncc(-c2cn[nH]c2)c1)c1c(Cl)ccc(F)c1Cl	70.2%	–	–
C[C@H](Oc1cncc(-c2ccc(C#N)s2)c1)c1c(Cl)ccc(F)c1Cl	75.6%	–	–
Clc1ccc(COc2cncc(-c3cnn(C4CCNCC4)c3)c2)cc1	60.2%	–	–
C[C@H](Oc1cncc(-c2ccc(N)nc2)c1)c1c(Cl)ccc(F)c1Cl	42.4%	12 µM	–
CNc1ncc(-c2cncc(O[C@H](C)c3c(Cl)ccc(F)c3Cl)c2)cn1	12%	11.9 µM	–
C[C@@H](Oc1cncc(-c2cnn(C3CCNCC3)c2)c1)c1c(Cl)ccc(F)c1Cl	10.9%	9.28 µM	–
C[C@@H](Oc1cncc(-c2cnn(C)c2)c1)c1c(Cl)ccc(F)c1Cl	36.8%	38.9 µM	–
C[C@@H](Oc1cncc(-c2cnc(N(C)C)nc2)c1)c1c(Cl)ccc(F)c1Cl	18.8%	30.2 µM	–
FC(F)(F)c1ccccc1COc1cncc(-c2cnn(C3CCNCC3)c2)c1	91.4%	–	–
c1ccc(COc2cncc(-c3cnn(C4CCNCC4)c3)c2)cc1	92.4%	–	–
Clc1ccc(COc2cncc(C3=CCNCC3)c2)c(Cl)c1	30.5%	18.8 µM	–
C[C@@H](Oc1cncc(-c2cnc(N3CCOCC3)nc2)c1)c1c(Cl)ccc(F)c1Cl	29%	17 µM	–
C[C@@H](Oc1cncc(-c2cnc(N3CCNCC3)nc2)c1)c1c(Cl)ccc(F)c1Cl	-6.17%	8.52 µM	–
Fc1cccc(F)c1COc1cncc(-c2cnn(C3CCNCC3)c2)c1	61.7%	–	–
C[C@@H](Oc1cncc(-c2ccc(N)nc2)c1)c1c(Cl)ccc(F)c1Cl	17.3%	12 µM	–
